Measured values published in PMC2765255 (Journal of medicinal chemistry, 2009).
Counter-ions that a name gives are not always drawn.

Assays:
[1] = molecular target: S. aureus CrtM (dehydrosqualene synthase) (Staphylococcus aureus, UniProt A9JQL9); assay: CrtM enzyme inhibition assay; format: biochemical
[2] = molecular target: human squalene synthase (SQS) (Homo sapiens, UniProt P37268); format: biochemical; conditions: experimental data
S. aureus = conditions: mice treated with 1, compared to control group; cited from earlier work
[3] = tested on: STX biosynthesis in S. aureus; assay: Staphyloxanthin biosynthesis inhibition assay; format: cell-based; conditions: Staphylococcus aureus, 72 h, read-out: staphyloxanthin IC50

human squalene synthase (SQS), sequence (P37268 31-370): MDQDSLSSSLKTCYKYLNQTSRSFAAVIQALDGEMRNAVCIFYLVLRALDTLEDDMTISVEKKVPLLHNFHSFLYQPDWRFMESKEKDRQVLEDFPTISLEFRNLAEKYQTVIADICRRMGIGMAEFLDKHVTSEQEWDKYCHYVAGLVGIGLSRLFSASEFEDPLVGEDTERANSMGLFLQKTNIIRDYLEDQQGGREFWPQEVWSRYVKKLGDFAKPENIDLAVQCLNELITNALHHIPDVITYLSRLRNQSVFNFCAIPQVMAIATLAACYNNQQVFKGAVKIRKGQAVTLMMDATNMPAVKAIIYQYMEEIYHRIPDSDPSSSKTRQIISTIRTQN
S. aureus CrtM (dehydrosqualene synthase), sequence (A9JQL9 whole entry): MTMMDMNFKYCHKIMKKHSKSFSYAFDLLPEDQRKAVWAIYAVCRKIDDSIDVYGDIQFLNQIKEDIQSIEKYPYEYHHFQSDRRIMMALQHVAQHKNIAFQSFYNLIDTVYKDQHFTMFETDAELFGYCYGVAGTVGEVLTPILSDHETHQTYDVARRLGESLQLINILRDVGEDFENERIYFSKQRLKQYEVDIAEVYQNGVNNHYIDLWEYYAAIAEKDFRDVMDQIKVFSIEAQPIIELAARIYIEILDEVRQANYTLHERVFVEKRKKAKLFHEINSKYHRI

**Q.** With O=P([O-])([O-])C(CCCc1cccc(Oc2ccc(F)cc2)c1)S(=O)(=O)[O-].[K+].[K+].[K+] (stereo not shown) [Compound 5, 1-Phosphono-4-[3-(4-fluorophenoxy)phenyl]butylsulfonic Acid Tripotassium Salt] as the compound, how does the “as active as 1 in CrtM inhibition” value [1] read?
**A.** ~4 ×

**Q.** Which results are given for O=P([O-])([O-])C(CCCc1ccc(-c2ccc(C(F)(F)F)cc2)cc1)P(=O)([O-])[O-].[K+].[K+].[K+].[K+] [Compound 3]?
**A.** IC50 [1]: 0.182 µM; pIC50(CrtM) – pIC50(hSQS) [2]: −1.86 M

**Q.** With CCCc1ccc(Oc2cccc(CCCC(P(=O)([O-])[O-])S(=O)(=O)[O-])c2)cc1.[K+].[K+].[K+] (stereo not shown) [Compound 6, 1-Phosphono-4-[3-(4-propylphenoxy)phenyl]butylsulfonic Acid Tripotassium Salt] as the compound, how does the “as active as 1 in CrtM inhibition” value [1] read?
**A.** ~4 ×

**Q.** For O=P([O-])([O-])C(CCCc1cccc(Oc2ccccc2Cc2ccccc2)c1)S(=O)(=O)[O-].[K+].[K+].[K+] (stereo not shown) [Compound 8, 1-Phosphono-4-[3-(2-benzylphenoxy)phenyl]butylsulfonic Acid Tripotassium Salt], which “less active than 1 in CrtM inhibition” value [1] is on record?
**A.** ≈ 5 ×

**Q.** With O=P([O-])([O-])C(CCCc1cccc(Oc2ccccc2)c1)S(=O)(=O)[O-].[K+].[K+].[K+] (stereo not shown) [Compound 1, 1-Phosphono-4-(3-phenoxyphenyl)butylsulfonic Acid Tripotassium Salt] as the compound, how does the “bacterial counts in kidneys reduced” value (S. aureus) read?
**A.** 98%

**Q.** Which “pIC50(CrtM) – pIC50(hSQS)” value [2] does the source give for O=P([O-])([O-])C(CCc1cccc(Oc2ccccc2)c1)S(=O)(=O)[O-].[K+].[K+].[K+] (stereo not shown) [Compound 15, 1-Phosphono-3-(3-phenoxyphenyl)propylsulfonic Acid Tripotassium Salt] here?
**A.** −2.96 M

**Q.** Which “more active than its (R)-enantiomer in CrtM inhibition” value ([1]; fold) does the source give for O=P([O-])([O-])[C@H](CCCc1cccc(Oc2ccccc2)c1)S(=O)(=O)[O-].[K+].[K+].[K+] [Compound (S)-1, (1S)-1-Phosphono-4-(3-phenoxyphenyl)butylsulfonic Acid Tripotassium Salt] here?
**A.** ~30 ×

**Q.** Which “pIC50(CrtM) – pIC50(hSQS)” value [2] does the source give for O=P([O-])([O-])C(Cc1cccc(Oc2ccccc2)c1)S(=O)(=O)[O-].[K+].[K+].[K+] (stereo not shown) [Compound 14, 1-Phosphono-2-(3-phenoxyphenyl)ethylsulfonic Acid Tripotassium Salt] here?
**A.** −2.66 M

**Q.** Which IC50 [3] does the source give for O=P(O)(O)C(CCCc1cccc(Oc2ccc(O)cc2)c1)S(=O)(=O)O (stereo not shown) [Compound 27, 1-Phosphono-4-[3-(4-hydroxyphenoxy)phenyl]butylsulfonic Acid Tripotassium Salt] here?
**A.** 6.8 µM
